We go through 18 molecules from US20240101570A1 (AMGEN INC., priority 2020, published 2024).

One may read the IC50 as the concentration that inhibits the measured activity by half.

Experiment [1] deals with HCT116 MTAP null cells. The experiment in a line: HCT116 MTAP null cell proliferation / viability (CellTiter-Glo, 6 days). Particulars: HCT116-MTAP null, 144 h, HCT116 MTAP null cells, 6 days, CellTiter-Glo; read-out: HCT-116 MTAP null IC50. Format: cell-based. The method, boiled down:
(§1)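 CellTiter-Glo luminescence, 6-day exposure, RPMI 1640 + 10% FBS. Dosing: 1:3 series (8-9 pts, top 1 or 10 μM) or 1:2 series (22 pts, top 10 or 50 μM), DMSO control. IC50 = 50% of control via curve fit.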
For orientation: Cellular ATP, detected with luciferase, serves as a proxy for viable cell number.

Experiment [2] deals with HCT116 WT cells. The experiment in a line: HCT116 WT cell proliferation / viability (CellTiter-Glo, 6 days). The format is cell-based. To be noted: Homo sapiens, HCT-116, 144 h, HCT116 WT cells, 6 days, CellTiter-Glo; read-out: HCT-116 WT IC50. The method, boiled down:
as §1

On to `C[C@@H]1OCc2c1c(N)nc1cnc(C(=O)N(C3CC3)[C@H](C)c3ccc(C(F)(F)F)cn3)cc21` (single isomer, unassigned) [Example 590], for which the values for the 50% inhibitory concentration (IC50) in experiment [1] and in experiment [2] were 2230 nM and > 50000 nM, respectively.
As for `CC1OCc2c1c(N)nc1ccc(C(=O)N(Cc3ccc(C#N)cn3)CC3(C#N)CC3)cc21` (stereo not drawn) [Example 913, 4-amino-N-((1-cyanocyclopropyl)methyl)-N-((5-cyanopyridin-2-yl)methyl)-3-methyl-1,3-dihydrofuro[3,4-c]quinoline-8-carboxamide], the figures for the half-inhibitory concentration (IC50) in experiment [1] and in experiment [2] were 49 nM and 1700 nM, respectively.
The matching figures for `Nc1nc2cc(Cl)c(C(=O)N(Cc3ccc(C(F)(F)F)nn3)C3CC3)cc2c2c1COC2` [Example 490, 4-amino-7-chloro-N-cyclopropyl-N-((6-(trifluoromethyl)-3-pyridazinyl)methyl)-1,3-dihydrofuro[3,4-c]quinoline-8-carboxamide]: 87 nM and 3480 nM.
Consider `CC(C)N(C(=O)c1ccc2nc(N)c3c(c2c1)COC3)[C@H](C)c1ccc(C(F)(F)F)cn1` (single isomer, unassigned) [Example 832], for which the figures for the half-inhibitory concentration (IC50) in experiment [1] and in experiment [2] were 454 nM and 12600 nM, respectively.
The matching figures for `C[C@H](c1ccc(C(F)(F)F)cn1)N(C(=O)c1ccc2nc(N)c3c(c2c1)CO[C@@H]3C)C1CC1` [Example 746, (3R)-4-amino-N-cyclopropyl-3-methyl-N-((1R)-1-(5-(trifluoromethyl)-2-pyridinyl)ethyl)-1,3-dihydrofuro[3,4-c]quinoline-8-carboxamide]: 34 nM and 3460 nM.
In the same order, the values of `CN(Cc1ccc(C(F)(F)F)nn1)C(=O)c1cc2c(cc1F)nc(N)c1cnn(C)c12` [Example 571, 4-amino-7-fluoro-N,1-dimethyl-N-((6-(trifluoromethyl)-3-pyridazinyl)methyl)-1H-pyrazolo[4,3-c]quinoline-8-carboxamide] are 71 nM and 4930 nM.
In the same order, the values of `C[C@H](c1ncccn1)N(Cc1ccc(C#N)cn1)C(=O)c1ccc2nc(N)c3c(c2c1)CCC3` [Example 615, 4-amino-N-((5-cyano-2-pyridinyl)methyl)-N-((1R)-1-(2-pyrimidinyl)ethyl)-2,3-dihydro-1H-cyclopenta[c]quinoline-8-carboxamide] are 19 nM and 271 nM.
As for `C[C@H](c1ccc(-c2ccc(C(F)(F)F)cc2)cc1)N(C)C(=O)c1ccc2nc(N)c3cnn(C)c3c2c1` [Example 531, 4-amino-N,1-dimethyl-N-((1R)-1-(4′-(trifluoromethyl)[biphenyl]-4-yl)ethyl)-1H-pyrazolo[4,3-c]quinoline-8-carboxamide], the IC50 amounted to 188 nM in experiment [1] and 2340 nM in experiment [2].
The matching figures for `Nc1nc2cnc(C(=O)N(Cc3ccc(C(F)(F)F)cn3)c3cnn(C4CC4)c3)cc2c2c1COC2` [Example 690, 4-amino-N-(1-cyclopropyl-1H-pyrazol-4-yl)-N-((5-(trifluoromethyl)-2-pyridinyl)methyl)-1,3-dihydrofuro[3,4-c][1,7]naphthyridine-8-carboxamide]: 71 nM and 4170 nM.
Regarding `C[C@H]1OCc2c1c(N)nc1cnc(C(=O)N(C)Cc3ccc(C#N)cn3)cc21` [Example 312, (3R)-4-amino-N-((5-cyano-2-pyridinyl)methyl)-N,3-dimethyl-1,3-dihydrofuro[3,4-c][1,7]naphthyridine-8-carboxamide], the concentration for half-maximal inhibition (IC50) in experiment [1] was 1090 nM; in experiment [2], > 10000 nM.
Turning to `COC[C@@H](C)N(Cc1ccc(Br)nn1)C(=O)c1ccc2nc(N)c3c(c2c1)COC3` [Example 463, 4-amino-N-((6-bromo-3-pyridazinyl)methyl)-N-((2R)-1-methoxy-2-propanyl)-1,3-dihydrofuro[3,4-c]quinoline-8-carboxamide], the IC50 came out at 14 nM in experiment [1] and 440 nM in experiment [2].
Regarding `CC(C)CN(Cc1ccc(C(F)(F)F)cn1)C(=O)c1ccc2nc(N)c3ccncc3c2c1` [Example 632, 5-amino-N-(2-methylpropyl)-N-((5-(trifluoromethyl)-2-pyridinyl)methyl)benzo[c][2,6]naphthyridine-9-carboxamide], the IC50 is 11 nM in experiment [1] and 231 nM in experiment [2].
The matching figures for `C[C@H]1OCc2c1c(N)nc1ccc(C(=O)N(C)Cc3ccc(C(F)(F)F)cn3)cc21` [Example 376, (3R)-4-amino-N,3-dimethyl-N-((5-(trifluoromethyl)-2-pyridinyl)methyl)-1,3-dihydrofuro[3,4-c]quinoline-8-carboxamide]: 222 nM and 15200 nM.
Consider `C[C@H](c1ccc(C(F)(F)F)cn1)N(C)C(=O)c1ccc2nc(N)c3c(c2c1)CO[C@@H]3C` (single isomer, unassigned) [Example 851], for which the results for the half-inhibitory concentration (IC50) in experiment [1] and in experiment [2] were 47 nM and 4000 nM, respectively.
As for `CCN(Cc1ccc(C(F)(F)F)nn1)C(=O)c1cc2c(cn1)nc(N)c1cnn(C)c12` [Example 550, 4-amino-N-ethyl-1-methyl-N-((6-(trifluoromethyl)-3-pyridazinyl)methyl)-1H-pyrazolo [4,3-c][1,7]naphthyridine-8-carboxamide], the IC50 is 66 nM in experiment [1] and 1800 nM in experiment [2].
In the case of `Nc1nc2cnc(C(=O)N(Cc3ccc(C(F)(F)F)nn3)C3CC(F)(F)C3)cc2c2c1COC2` [Example 668, 4-amino-N-(3,3-difluorocyclobutyl)-N-((6-(trifluoromethyl)-3-pyridazinyl)methyl)-1,3-dihydrofuro[3,4-c][1,7]naphthyridine-8-carboxamide], the IC50 in experiment [1] was 304 nM; in experiment [2], > 10000 nM.
As to `CCN(Cc1ccc(C(F)(F)F)cn1)C(=O)c1cc2c(cc1F)nc(N)c1c(C)nn(C)c12` [Example 560, 4-amino-N-ethyl-7-fluoro-1,3-dimethyl-N-((5-(trifluoromethyl)-2-pyridinyl)methyl)-1H-pyrazolo[4,3-c]quinoline-8-carboxamide], the IC50 turned out to be 56 nM in experiment [1] and 4140 nM in experiment [2].
On to `Cn1cc(N(Cc2ccc(C(F)(F)F)cn2)C(=O)c2cc3c4c(c(N)nc3cc2F)COC4)cn1` [Example 714, 4-amino-7-fluoro-N-(1-methyl-1H-pyrazol-4-yl)-N-((5-(trifluoromethyl)-2-pyridinyl)methyl)-1,3-dihydrofuro[3,4-c]quinoline-8-carboxamide], for which the figures for the half-inhibitory concentration (IC50) in experiment [1] and in experiment [2] were 8 nM and 124 nM, respectively.
